One test has as its target T1, SIK2 (Homo sapiens, UniProt Q9H0K1).
T1 construct: purchased ThermoFisher Scientific PV4792
As to the kind of experiment: biochemical. To be noted: 33P radioactive SIK kinase assay, AMARA peptide, 10 μM ATP. In outline: (§1)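 Read-out: ^33P incorporated into AMARA peptide, counted on filter plates, taken as kinase activity. Reactions start on addition of labeled/unlabeled ATP to enzyme plus substrate and end with phosphoric acid. Controls: 1% DMSO (negative) and 10 μM staurosporine (positive), final.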

Another test has as its target T2, SIK1 (Homo sapiens, UniProt P57059).
T2 construct: purchased Carna Biosciences 02-131
As to the kind of experiment: biochemical. The following applies: 33P radioactive SIK kinase assay, AMARA peptide, 10 μM ATP; read-out: SIK1 IC50. The procedure, abridged:
as §1

Another test has as its target T3, SIK3 (Homo sapiens, UniProt Q9Y2K2).
T3 construct: purchased SignalChem S12-11G-100
Kind of test: biochemical. In outline:
as §1

Test [1] deals with LPS triggered IL-10 secretion in monocyte-derived macrophages (MdM). As to the kind of experiment: MdM assay: LPS-triggered IL-10 (ELISA). The test is classed as cell-based, human. The following applies: maximal fold change vs LPS only, median across assays. On the procedure: This assay evaluates illustrative compounds of the invention for their inhibition of LPS-induced TNFα and LPS triggered IL-10 secretion in monocyte-derived macrophages.
PBMCs are isolated from human blood samples (buffycoats). The buffy coat is aseptically transferred into a 50 mL Falcon tube, and diluted 1/2 in PBS. Falcon tubes are filled with 20 mL Lymphoprep™, on top of which 25 mL of the buffy coat is carefully added, tubes are centrifuged for 35 min at 400 g in temperature controlled centrifuge, without brake, at 25° C. PBMCs are aspirated from the white interface layer between sample and Lymphoprep™. PBMCs are washed five times in PBS.
PBMCs are centrifuged at 300×g for 10 min and resuspended at a density of 1.0E07 cells/80 μL Miltenyi buffer (PBS, pH 7.4, 1% FBS, 2 mM EDTA).
Starting from this point of the protocol all steps are performed on ice. 20 μL of CD14+ micro-beads are added per 1.0E07 cells, the tube is mixed and incubated for 15 min in the fridge at 4° C. Cell suspension volume is adjusted to total volume of 100 mL using Miltenyi buffer, mixed gently and subsequently centrifuged for 10 min at 300× g. Supernantant is discarded and cell pellet is resuspended in 12 mL of Miltenyi buffer.
Four LS columns are placed in the MACS Separator (magnet) from Miltenyi Biotec, and are prewet by rinsing with 3 mL of MACS buffer per column. Three mL of cell suspension is added onto the column (max 1*10^8 of labelled cells/column), and columns are subsequently washed 3 times with 3 mL of Miltenyi buffer.
The columns are removed from the magnets, and 5 mL of Miltenyi buffer are added to the column to flush out the CD14+ fraction by pushing the plunger into the column. The flushed fractions are collected in a fresh 50 mL Falcon and volume is adjusted to 30 mL using Miltenyi buffer, cells are centrifuged for 10 min at 300× g. The obtained cell pellet is resuspended in 10 mL RPMI w/o FBS, and cell density is determined using a hematologic analyser (Sysmex XS-500i).
On day 10, MdMs are triggered and compound is added.
A compound dilution plate is made in 100% DMSO by 3-fold dilution of 10 mM stock solution. An intermediate dilution plate (10× final concentration) is made by diluting the compound dilution plate 50-fold in RPMI medium.
Medium is carefully removed from cell plates using multichannel pipette, and replaced by 80 μL fresh medium. 10 μL of the 10× final concentration compound is added to the cells and incubated for 1 hour at 37° C. before addition of trigger. No trigger conditions/trigger conditions are spiked with equal final DMSO concentrations of 0.2% DMSO. 10 μL of 10×LPS (final conc. 200 ng/mL) solution are added to all wells except for the ‘no trigger wells’ where 10 μL medium is added. Supernatant is collected after 2 h (IL-10 determination) and after 20 h (TNFα determination) of LPS triggering.
Plates are washed three times with PBST, where after 100 μL of Strep-HRP conjugate (0.5 μg/mL final concentration diluted in dilution buffer) is added. Plates are incubated in the dark, at 37° C. for 30 min. Plates are washed three times with PBST. […] 100 μL of substrate solution is added to each well and incubated until brilliant blue color develops. The reaction is stopped by adding 50 μL of 1 M H2SO4, after which absorbance is measured at 450 nm on the SpectraMax i3, Molecular Devices.
To quantify these inductions fold changes (FC) compared to ‘LPS only’ are calculated for each concentration tested and the maximal FC is calculated (IL-10 FCmax):
[formula] wherein ABS=Absorbance measured at 450 nm.
The median maximal FC for test compounds across two or more assays is reported (IL-10FCmax median).
(In general: An ELISA detects its analyte on a solid surface through an enzyme-linked reagent.)

The test system of test [2] is LPS-induced TNFα secretion in monocyte-derived macrophages (MdM). Kind of test: MdM assay: LPS-triggered TNFα (ELISA). It counts as cell-based, human. The following applies: LPS-triggered TNFα inhibition. In outline: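 Human CD14+ monocytes isolated from buffy-coat PBMCs by magnetic beads, differentiated to macrophages; on day 10 compound preincubated 1 h at 37 °C, then LPS 200 ng/mL added (0.2% DMSO). Supernatant taken after 20 h; TNFα quantified by sandwich ELISA against standard curve.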

Structures are written as SMILES. Read-outs that look alike come from different tables or passages of the source.

What is called IC50 is the concentration that inhibits the measured activity by half. Usually EC50 stands for the concentration needed to bring the measured effect to its halfway point.

T1 sequence (Q9H0K1 whole entry): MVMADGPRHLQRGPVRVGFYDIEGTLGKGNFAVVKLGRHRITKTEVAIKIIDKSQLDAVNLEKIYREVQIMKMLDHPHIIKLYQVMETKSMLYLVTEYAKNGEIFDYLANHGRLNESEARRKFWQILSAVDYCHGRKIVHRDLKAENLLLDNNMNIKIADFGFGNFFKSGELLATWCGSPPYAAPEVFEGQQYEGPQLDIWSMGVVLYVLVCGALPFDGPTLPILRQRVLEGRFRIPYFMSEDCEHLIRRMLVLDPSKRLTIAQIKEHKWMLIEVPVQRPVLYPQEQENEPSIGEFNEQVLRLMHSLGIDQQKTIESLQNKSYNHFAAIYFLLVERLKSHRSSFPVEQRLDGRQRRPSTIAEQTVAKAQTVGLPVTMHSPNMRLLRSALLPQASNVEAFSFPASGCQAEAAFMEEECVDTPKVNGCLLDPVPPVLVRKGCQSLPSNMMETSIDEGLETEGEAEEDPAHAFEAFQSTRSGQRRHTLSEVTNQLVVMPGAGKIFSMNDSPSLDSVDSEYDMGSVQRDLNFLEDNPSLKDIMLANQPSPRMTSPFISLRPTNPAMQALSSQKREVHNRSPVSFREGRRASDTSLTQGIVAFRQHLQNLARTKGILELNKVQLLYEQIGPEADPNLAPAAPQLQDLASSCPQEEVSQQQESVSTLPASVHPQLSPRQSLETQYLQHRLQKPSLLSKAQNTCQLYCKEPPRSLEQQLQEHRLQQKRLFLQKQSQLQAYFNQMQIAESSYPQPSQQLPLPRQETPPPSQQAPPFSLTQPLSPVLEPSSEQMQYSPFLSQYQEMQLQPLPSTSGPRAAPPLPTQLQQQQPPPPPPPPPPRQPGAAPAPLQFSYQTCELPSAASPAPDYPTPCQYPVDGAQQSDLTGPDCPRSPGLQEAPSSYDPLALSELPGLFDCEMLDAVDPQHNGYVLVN
T3 sequence (Q9Y2K2 whole entry): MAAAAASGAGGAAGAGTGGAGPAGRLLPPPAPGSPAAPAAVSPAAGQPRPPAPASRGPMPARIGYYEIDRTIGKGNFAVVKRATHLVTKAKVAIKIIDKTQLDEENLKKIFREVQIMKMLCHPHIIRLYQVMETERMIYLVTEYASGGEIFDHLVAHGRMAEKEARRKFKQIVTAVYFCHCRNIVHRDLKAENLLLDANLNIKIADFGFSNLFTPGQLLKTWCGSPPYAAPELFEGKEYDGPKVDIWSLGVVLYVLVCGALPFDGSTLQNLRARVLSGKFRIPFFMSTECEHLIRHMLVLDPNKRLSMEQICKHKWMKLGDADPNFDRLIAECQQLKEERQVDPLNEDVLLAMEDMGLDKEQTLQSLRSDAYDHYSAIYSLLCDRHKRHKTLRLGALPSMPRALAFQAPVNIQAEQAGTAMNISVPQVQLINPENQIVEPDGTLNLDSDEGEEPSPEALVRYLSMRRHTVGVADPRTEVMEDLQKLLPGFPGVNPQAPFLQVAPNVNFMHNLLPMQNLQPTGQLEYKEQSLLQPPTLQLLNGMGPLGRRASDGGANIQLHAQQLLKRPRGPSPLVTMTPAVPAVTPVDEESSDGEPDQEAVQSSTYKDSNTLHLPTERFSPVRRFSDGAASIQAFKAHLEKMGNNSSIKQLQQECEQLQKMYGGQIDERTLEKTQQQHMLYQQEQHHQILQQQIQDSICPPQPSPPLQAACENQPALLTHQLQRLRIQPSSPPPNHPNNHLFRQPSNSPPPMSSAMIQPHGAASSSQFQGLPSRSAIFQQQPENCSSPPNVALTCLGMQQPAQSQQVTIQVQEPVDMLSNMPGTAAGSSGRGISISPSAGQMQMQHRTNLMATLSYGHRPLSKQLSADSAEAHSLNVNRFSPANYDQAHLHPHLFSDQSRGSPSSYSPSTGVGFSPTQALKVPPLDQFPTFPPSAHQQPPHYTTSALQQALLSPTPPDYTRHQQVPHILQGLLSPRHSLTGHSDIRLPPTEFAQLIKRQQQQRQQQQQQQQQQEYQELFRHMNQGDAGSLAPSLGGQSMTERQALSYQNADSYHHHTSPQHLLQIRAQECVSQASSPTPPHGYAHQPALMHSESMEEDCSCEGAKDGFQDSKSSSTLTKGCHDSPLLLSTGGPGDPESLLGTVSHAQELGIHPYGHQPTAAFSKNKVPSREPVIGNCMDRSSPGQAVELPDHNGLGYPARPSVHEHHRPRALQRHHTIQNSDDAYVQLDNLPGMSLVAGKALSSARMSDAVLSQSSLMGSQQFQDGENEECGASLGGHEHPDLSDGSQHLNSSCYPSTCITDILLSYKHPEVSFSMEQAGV
T2 sequence (P57059 whole entry): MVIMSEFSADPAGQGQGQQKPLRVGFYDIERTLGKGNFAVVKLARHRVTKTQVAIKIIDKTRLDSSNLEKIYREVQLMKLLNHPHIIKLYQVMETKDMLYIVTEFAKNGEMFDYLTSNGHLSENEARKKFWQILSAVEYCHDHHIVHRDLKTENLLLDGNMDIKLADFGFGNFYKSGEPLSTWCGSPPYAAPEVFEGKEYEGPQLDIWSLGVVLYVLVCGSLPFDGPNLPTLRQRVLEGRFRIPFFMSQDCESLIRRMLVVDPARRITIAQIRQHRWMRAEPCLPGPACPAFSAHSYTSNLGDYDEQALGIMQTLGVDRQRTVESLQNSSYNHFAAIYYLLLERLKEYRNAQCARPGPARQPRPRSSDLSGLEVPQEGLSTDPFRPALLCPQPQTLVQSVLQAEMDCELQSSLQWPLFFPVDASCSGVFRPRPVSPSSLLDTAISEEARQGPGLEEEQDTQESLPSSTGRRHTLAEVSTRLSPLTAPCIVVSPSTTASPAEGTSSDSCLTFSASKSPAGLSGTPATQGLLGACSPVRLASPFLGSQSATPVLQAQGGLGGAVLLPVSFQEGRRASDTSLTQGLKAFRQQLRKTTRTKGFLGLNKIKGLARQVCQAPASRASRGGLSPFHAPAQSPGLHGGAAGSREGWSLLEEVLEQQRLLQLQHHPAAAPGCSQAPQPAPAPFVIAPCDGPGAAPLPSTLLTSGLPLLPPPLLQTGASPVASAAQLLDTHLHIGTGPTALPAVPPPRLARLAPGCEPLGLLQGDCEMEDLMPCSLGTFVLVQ

Regarding `CCn1cc(-c2cnc3c(c2)ncn3-c2cc(OC)c(C(=O)NCC(F)(F)F)c(OC)c2)cn1` [Cpd 29, 4-[6-(1-ethylpyrazol-4-yl)imidazo[4,5-b]pyridin-3-yl]-2,6-dimethoxy-N-(2,2,2-trifluoroethyl)benzamide], the IC50 at SIK2, at SIK1 and on SIK3 was 10 to 100 nM throughout. In test [1], the “IL-10 FCmax median” value was “++ (>1.5-4.5)”. Moreover, in test [2] (Homo sapiens, Macrophage), the EC50 was in the range of 100 to 1000 nM.
With `COc1cc(-n2cnc3cc(-c4cnn(C5CCN(C)CC5)c4)ccc32)cc(OC)c1C(=O)NCC(F)(F)F` [Cpd 46, 2,6-dimethoxy-4-[5-[1-(1-methyl-4-piperidyl)pyrazol-4-yl]benzimidazol-1-yl]-N-(2,2,2-trifluoroethyl)benzamide], the 50% inhibitory concentration (IC50) at SIK2, on SIK1 and against SIK3 was 0.01 to 10 nM in each case. Besides, the “IL-10 FCmax median” value in test [1] is given as “++ (>1.5-4.5)”. The EC50 in test [2] (Homo sapiens, Macrophage) was in the range of 0.1 to 100 nM.
For the compound `COc1cc(-n2cnc3cc(-c4cnoc4)ccc32)cc(OC)c1C(=O)NCC(F)(F)F` [Cpd 51, 4-(5-isoxazol-4-ylbenzimidazol-1-yl)-2,6-dimethoxy-N-(2,2,2-trifluoroethyl)benzamide], the 50% inhibitory concentration (IC50) at SIK2, on SIK1 and at SIK3 was 10 to 100 nM each time. Moreover, the “IL-10 FCmax median” value in test [1] is recorded as “++ (>1.5-4.5)”. In test [2] (Homo sapiens, Macrophage), this compound came in with an EC50 of 100 to 1000 nM.
For the compound `COc1cc(-n2cnc3cc(-c4cnn(C)c4)ccc32)cc(OC(F)F)c1C(=O)NC1CC1` [Cpd 53, N-cyclopropyl-2-(difluoromethoxy)-6-methoxy-4-[5-(1-methylpyrazol-4-yl)benzimidazol-1-yl]benzamide], the “IL-10 FCmax median” value in test [1] is given as “++ (>1.5-4.5)”.
Take `CCCNC(=O)c1c(OC)cc(-n2cnc3cc(-c4cnn(CC)c4)ccc32)cc1OC` [compound 22, 4-[5-(1-ethylpyrazol-4-yl)benzimidazol-1-yl]-2,6-dimethoxy-N-propyl-benzamide]: the “IL-10 FCmax median” value in test [1] was “++ (>1.5-4.5)”. In addition, the concentration giving a half-maximal response (EC50) in test [2] (Homo sapiens, Macrophage) lay within 100 to 1000 nM.
Turning to `COc1cc(-c2cnc3cc(-c4cnn(C)c4)ccn23)cc(OC)c1C(=O)N1CCC(C#N)C1` (stereo not shown) [compound 210, 1-[2,6-dimethoxy-4-[7-(1-methylpyrazol-4-yl)imidazo[1,2-a]pyridin-3-yl]benzoyl]pyrrolidine-3-carbonitrile], the IC50 at SIK2 is 10 to 100 nM; at SIK1 it was 10 to 100 nM; against SIK3, 0.01 to 10 nM. In test [2] (Homo sapiens, Macrophage), this compound displayed an EC50 of 100 to 1000 nM.
As for `C#CC1(O)CN(C(=O)c2c(OC)cc(-n3cnc4cc(-c5cnn(C)c5)ccc43)cc2OC)C1` [compound 221, [2,6-dimethoxy-4-[5-(1-methylpyrazol-4-yl)benzimidazol-1-yl]phenvl]-(3-ethynyl-3-hydroxy-azetidin-1-yl)methanone], the half-inhibitory concentration (IC50) at SIK2, on SIK1 and against SIK3 was 10 to 100 nM throughout. The same compound registered a concentration giving a half-maximal response (EC50) in test [2] (Homo sapiens, Macrophage) of 100 to 1000 nM.
For `COc1cc(-c2cnc3cc(-c4cc(C)no4)ccn23)cc(OC)c1C(=O)NCC(F)(F)F` [compound 232, 2,6-dimethoxy-4-[7-(3-methylisoxazol-5-yl)imidazo[1,2-a]pyridin-3-yl]-N-(2,2,2-trifluoroethyl)benzamide], the figures for the IC50 on SIK2, at SIK1 and against SIK3 were 0.01 to 10 nM, 10 to 100 nM and 0.01 to 10 nM, respectively. Moreover, the EC50 in test [2] (Homo sapiens, Macrophage) was 0.1 to 100 nM.
In the case of `COc1cc(-c2cnc3cc(-c4cnn(CC(=O)OC5CC5)c4)ccn23)cc(OC)c1C(=O)NCC(F)(F)F` [compound 234, cyclopropyl 2-[4-[3-[3,5-dimethoxy-4-(2,2,2-trifluoroethyl-carbamoyl)phenyl]imidazo[1,2-a]pyridin-7-yl]pyrazol-1-yl]acelate], the half-inhibitory concentration (IC50) on SIK2, on SIK1 and at SIK3 was 0.01 to 10 nM throughout. The compound also displayed a half-maximal effective concentration (EC50) in test [2] (Homo sapiens, Macrophage) of 0.1 to 100 nM.
Consider `COc1ncc(-c2ccn3c(-c4cc(OC)c(C(=O)NCC(F)(F)F)c(OC)c4)cnc3c2)cn1` [compound 241, 2,6-dimethoxy-4-[7-(2-methoxypyrimidin-5-yl)imidazo[1,2-a]pyridin-3-yl]-N-(2,2,2-trifluoroethyl)benzamide], for which the IC50 at SIK2 was 100 to 500 nM; at SIK1 it was 100 to 500 nM; on SIK3 it was 10 to 100 nM. This compound also displayed a 50% effective concentration (EC50) in test [2] (Homo sapiens, Macrophage) of 100 to 1000 nM.
On to `COc1cc(-c2cnc3cc(-c4cncnc4)ccn23)cc(OC)c1C(=O)NCC(F)(F)F` [compound 242, 2,6-dimethoxy-4-(7-pyrimidin-5-ylimidazo[1,2-a]pyridin-3-yl)-N-(2,2,2-trifluoroethyl)benzamide], for which the values for the half-inhibitory concentration (IC50) on SIK2, at SIK1 and at SIK3 were 100 to 500 nM, 100 to 500 nM and 10 to 100 nM, respectively. In test [2] (Homo sapiens, Macrophage), this compound yielded an EC50 of 1000 to 5000 nM.
For the compound `COc1cc(-c2cnc3cc(-c4cnn(C(C)C(=O)OC(C)(C)C)c4)ccn23)cc(OC)c1C(=O)NCC(F)(F)F` (stereo not shown) [compound 243, tert-butyl 2-[4-[3-[3,5-dimethoxy-4-(2,2,2-trifluoroethyl-carbamoyl)phenyl]imidazol[1,2-a]pyridin-7-yl]pyrazol-1-yl]propanoate], the 50% inhibitory concentration (IC50) at SIK2, at SIK1 and against SIK3 was 0.01 to 10 nM in each case. In addition, the half-maximal effective concentration (EC50) in test [2] (Homo sapiens, Macrophage) was in the range of 0.1 to 100 nM.
On to `COC(=O)C(C)n1cc(-c2ccn3c(-c4cc(OC)c(C(=O)NCC(F)(F)F)c(OC)c4)cnc3c2)cn1` (stereo not shown) [compound 244, methyl 2-[4-[3-[3,5-diinethoxy-4-(2,2,2-trifluoroethyl-carbamoyl)phenyl]imidazo[1,2-a]pyridin-7-yl]pyrazol-1-yl]propanoate], for which the IC50 on SIK2 lay in the range of 0.01 to 10 nM; on SIK1, 0.01 to 10 nM; on SIK3 (33P radioactive SIK kinase assay, AMARA peptide, 15 μM ATP) it was 0.01 to 10 nM. This compound also displayed an EC50 in test [2] of 0.1 to 100 nM.
Consider `CCOc1cncc(-c2ccn3c(-c4cc(OC)c(C(=O)NCC(F)(F)F)c(OC)c4)cnc3c2)c1` [compound 248, 4-[7-(5-ethoxy-3-pyridyl)imidazo[1,2-a]pyridin-3-yl]-2,6-dimethoxy-N-(2,2,2-trifluoroethyl)benzamide], for which the concentration for half-maximal inhibition (IC50) at SIK2 was in the range of 0.01 to 10 nM; on SIK1 it was 10 to 100 nM; at SIK3, 0.01 to 10 nM. In test [2] (Homo sapiens, Macrophage), this compound registered a half-maximal effective concentration (EC50) of 0.1 to 100 nM.
Take `COc1cc(-c2cnc3cc(-c4ccc(N5CCOCC5)nc4)ccn23)cc(OC)c1C(=O)NCC(F)(F)F` [compound 251, 2,6-dimethoxy-4-[7-(6-morpholino-3-pyridyl)imidazo[1,2-a]pyridin-3-yl]-N-(2,2,2-trifluoroethyl)benzamide]: the IC50 on SIK2, on SIK1 and against SIK3 was 0.01 to 10 nM throughout. The same compound displayed an EC50 in test [2] (Homo sapiens, Macrophage) of 0.1 to 100 nM.
